US12077503B2, “Substituted cyclic amides and their use as herbicides” (FMC CORPORATION, priority 2015, dated 2024)
Read-outs that look alike come from different tables or passages of the source.

Experiments:
Assay type in all cases: in vivo
[1] = test system: pigweed (Amaranthus retroflexus); assay: Test A preemergence; conditions: Amaranthus retroflexus, pre-emergence, 240 h; for pest or weed control at 125 g/ha: 125 g ai/ha; for pest or weed control at 500 g/ha: 500 g ai/ha
[2] = test system: Galium (catchweed bedstraw, Galium aparine); assay: Test A postemergence; conditions: Galium, post-emergence, 240 h; for pest or weed control at 125 g/ha: 125 g ai/ha; for pest or weed control at 500 g/ha: 500 g ai/ha, visual injury, 0 to 100 scale (0 no effect, 100 complete control)
Outline: (§1)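 Compounds were formulated in a non-phytotoxic solvent mixture with surfactant and applied as a preemergence directed soil spray after seeding, or sprayed postemergence over plants 2 to 10 cm tall at the one- to two-leaf stage. Evaluation after about 10 d compared treated with untreated controls, using a scale from 0 (no effect) to 100 (complete control).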

Kochia (Kochia scoparia) = assay: Test A postemergence; conditions: Bassia scoparia, post-emergence, 240 h; for pest or weed control at 125 g/ha: 125 g ai/ha; for pest or weed control at 500 g/ha: 500 g ai/ha, visual injury, 0 to 100 scale (0 no effect, 100 complete control)
Outline: as §1

[3] = test system: barnyardgrass (Echinochloa crus-galli); assay: Test A postemergence; conditions: Echinochloa crus-galli, post-emergence, 240 h; for pest or weed control at 125 g/ha: 125 g ai/ha; for pest or weed control at 500 g/ha: 500 g ai/ha, visual injury, 0 to 100 scale (0 no effect, 100 complete control)
Outline: as §1

[4] = test system: blackgrass (Alopecurus myosuroides); assay: Test A postemergence; conditions: Alopecurus myosuroides, post-emergence, 240 h; for pest or weed control at 125 g/ha: 125 g ai/ha; for pest or weed control at 500 g/ha: 500 g ai/ha, visual injury, 0 to 100 scale (0 no effect, 100 complete control)
Outline: as §1

corn (Zea mays) = assay: Test A postemergence; conditions: Zea mays, post-emergence, 240 h; for Corn plant response rating (crop injury, 0 = no effect, 100 = complete kill) at 125 g/ha: Postemergence, visual injury after approximately 10 d, 0 to 100 scale where 0 is no effect and 100 is complete control; for Corn plant response rating (crop injury, 0 = no effect, 100 = complete kill) at 500 g/ha: 500 g ai/ha, visual injury, 0 to 100 scale (0 no effect, 100 complete control)
Outline: as §1

[5] = test system: giant foxtail (Setaria faberii); assay: Test A postemergence; conditions: Setaria faberi, post-emergence, 240 h; for pest or weed control at 125 g/ha: 125 g ai/ha; for pest or weed control at 500 g/ha: 500 g ai/ha, visual injury, 0 to 100 scale (0 no effect, 100 complete control)
Outline: as §1

[6] = test system: pigweed (Amaranthus retroflexus); assay: Test A postemergence; conditions: Amaranthus retroflexus, post-emergence, 240 h, 125 g ai/ha
Outline: as §1

[7] = test system: ragweed (common ragweed, Ambrosia elatior); assay: Test A postemergence; conditions: Ambrosia artemisiifolia, post-emergence, 240 h, 125 g ai/ha
Outline: as §1

[8] = test system: ryegrass, Italian (Italian ryegrass, Lolium multiflorum); assay: Test A postemergence; conditions: Lolium multiflorum, post-emergence, 240 h, 125 g ai/ha
Outline: as §1

[9] = test system: wheat (Triticum aestivum); assay: Test A postemergence; conditions: Triticum aestivum, post-emergence, 240 h, 125 g ai/ha
Outline: as §1

[10] = test system: barnyardgrass (Echinochloa crus-galli); assay: Test B flooded paddy test; conditions: Echinochloa crus-galli, Flood, 250 g ai/ha, read-out: Barnyardgrass plant response rating
Outline: (§2)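 Evaluation by eye, against controls, occurred 13–15 d post-treatment in a greenhouse, using a 0 (no effect) to 100 (complete control) scale. Application was into the paddy water, 3 cm deep over the soil, on 2-leaf plants.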

[11] = test system: ducksalad (Heteranthera limosa); assay: Test B flooded paddy test; conditions: Heteranthera limosa, Flood, 250 g ai/ha, read-out: Ducksalad plant response rating
Outline: as §2

rice (Oryra sativa) = assay: Test B flooded paddy test; conditions: Oryza sativa, Flood, 250 g ai/ha, read-out: Rice plant response rating
Outline: as §2

[12] = test system: sedge, umbrella (small-flower umbrella sedge, Cyperus difformis); assay: Test B flooded paddy test; conditions: Cyperus difformis, Flood, 250 g ai/ha, read-out: Sedge, Umbrella plant response rating
Outline: as §2

[13] = Postemergence, visual injury after approximately 10 d, 0 to 100 scale where 0 is no effect and 100 is complete control, read-out: Plant response rating, Barnyardgrass
[14] = Postemergence, visual injury after approximately 10 d, 0 to 100 scale where 0 is no effect and 100 is complete control, read-out: Plant response rating, Blackgrass
[15] = scale of 0 to 100 where 0 is no effect and 100 is complete control
[16] = Preemergence, visual injury rating after approximately 10 d, read-out: Pigweed plant response rating (0 to 100 scale, 0 is no effect, 100 is complete control)
[17] = preemergence, visual injury rating about 10 d after treatment, 0 to 100 scale (0 no effect, 100 complete control), read-out: Pigweed plant response rating
[18] = postemergence, visual injury on 0 to 100 scale (0 no effect, 100 complete control), approx. 10 d, read-out: Galium plant response rating
[19] = postemergence, approx. 10 d, read-out: Plant response rating, Galium
[20] = postemergence, visual injury on 0 to 100 scale (0 no effect, 100 complete control), approx. 10 d, read-out: Kochia plant response rating
[21] = postemergence, approx. 10 d, read-out: Plant response rating, Kochia
[22] = postemergence, approx. 10 d, read-out: Plant response rating, Barnyardgrass
[23] = postemergence, approx. 10 d, read-out: Plant response rating, Blackgrass
[24] = postemergence, visual injury on 0 to 100 scale (0 no effect, 100 complete control), approx. 10 d, read-out: Foxtail, Giant plant response rating
[25] = postemergence, approx. 10 d, read-out: Plant response rating, Foxtail, Giant
[26] = postemergence, visual injury on 0 to 100 scale (0 no effect, 100 complete control), approx. 10 d, read-out: Pigweed plant response rating
[27] = postemergence, visual injury on 0 to 100 scale (0 no effect, 100 complete control), approx. 10 d, read-out: Ragweed plant response rating
[28] = postemergence, visual injury on 0 to 100 scale (0 no effect, 100 complete control), approx. 10 d, read-out: Ryegrass, Italian plant response rating
[29] = postemergence, visual injury on 0 to 100 scale (0 no effect, 100 complete control), approx. 10 d, read-out: Wheat plant response rating
[30] = 0 to 100 scale where 0 is no effect and 100 is complete control

SMILES: O=C(Nc1cccc(F)c1F)[C@H]1C(=O)N(C2CC2)CC[C@@H]1c1cccc(C(F)(F)F)c1 [Compound 925]
- pest or weed control at 125 g/ha ([1]; preemergence, 0 to 100 scale where 0 is no effect and 100 is complete control, read-out: Pigweed plant response rating): 0%
- pest or weed control at 500 g/ha ([1]; Preemergence, visual injury vs untreated controls after approximately 10 d, read-out: Pigweed plant response rating (0 to 100 scale where 0 is no effect and 100 is complete control)): 0%
- pest or weed control at 125 g/ha ([2]; Postemergence, visual injury after approximately 10 d, 0 to 100 scale where 0 is no effect and 100 is complete control, read-out: Plant response rating, Galium): 0%
- pest or weed control at 125 g/ha (Kochia (Kochia scoparia); Postemergence, visual injury after approximately 10 d, 0 to 100 scale where 0 is no effect and 100 is complete control, read-out: Plant response rating, Kochia): 0%
- pest or weed control at 125 g/ha [3, 13]: 40%
- pest or weed control at 125 g/ha [4, 14]: 0%
- Corn plant response rating (crop injury, 0 = no effect, 100 = complete kill) at 125 g/ha (corn (Zea mays); 125 g ai/ha): 0%
- pest or weed control at 125 g/ha ([5]; Postemergence, visual injury after approximately 10 d, 0 to 100 scale where 0 is no effect and 100 is complete control, read-out: Plant response rating, Foxtail, Giant): 40%
- pest or weed control at 125 g/ha ([6]; Postemergence, visual injury after approximately 10 d, 0 to 100 scale where 0 is no effect and 100 is complete control, read-out: Plant response rating, Pigweed): 0%
- pest or weed control at 125 g/ha ([7]; Postemergence, visual injury after approximately 10 d, 0 to 100 scale where 0 is no effect and 100 is complete control, read-out: Plant response rating, Ragweed): 0%
- pest or weed control at 125 g/ha ([8]; Postemergence, visual injury after approximately 10 d, 0 to 100 scale where 0 is no effect and 100 is complete control, read-out: Plant response rating, Ryegrass, Italian): 0%
- plant injury at 125 g/ha ([9]; Postemergence, visual injury after approximately 10 d, 0 to 100 scale where 0 is no effect and 100 is complete control, read-out: Plant response rating, Wheat): 0%
- pest or weed control at 250 g/ha [10, 15]: 0%
- pest or weed control at 250 g/ha [11, 15]: 0%
- pest or weed control at 250 g/ha (rice (Oryra sativa); [15]): 0%
- pest or weed control at 250 g/ha [12, 15]: 0%

SMILES: CN1CC(c2ccccc2OC(F)(F)C(F)F)C(C(=O)Nc2ccccc2F)C1=O (stereo not drawn) [Compound 1053]
- pest or weed control at 125 g/ha [1, 16]: 0%
- pest or weed control at 500 g/ha [1, 17]: 0%
- pest or weed control at 125 g/ha [2, 18]: 0%
- pest or weed control at 500 g/ha [2, 19]: 0%
- pest or weed control at 125 g/ha (Kochia (Kochia scoparia); [20]): 0%
- pest or weed control at 500 g/ha (Kochia (Kochia scoparia); [21]): 0%
- pest or weed control at 125 g/ha ([3]; postemergence, visual injury on 0 to 100 scale (0 no effect, 100 complete control), approx. 10 d, read-out: Barnyardgrass plant response rating): 0%
- pest or weed control at 500 g/ha [3, 22]: 0%
- pest or weed control at 125 g/ha ([4]; postemergence, visual injury on 0 to 100 scale (0 no effect, 100 complete control), approx. 10 d, read-out: Blackgrass plant response rating): 0%
- pest or weed control at 500 g/ha [4, 23]: 0%
- plant injury at 125 g/ha (corn (Zea mays); 125 g ai/ha, postemergence, visual injury on 0 to 100 scale (0 no effect, 100 complete control), approx. 10 d, read-out: Corn plant response rating): 0%
- Corn plant response rating (crop injury, 0 = no effect, 100 = complete kill) at 500 g/ha (corn (Zea mays); postemergence, approx. 10 d): 0%
- pest or weed control at 125 g/ha [5, 24]: 0%
- pest or weed control at 500 g/ha [5, 25]: 0%
- pest or weed control at 125 g/ha [6, 26]: 0%
- pest or weed control at 125 g/ha [7, 27]: 0%
- pest or weed control at 125 g/ha [8, 28]: 0%
- plant injury at 125 g/ha [9, 29]: 0%
- pest or weed control at 250 g/ha [10, 30]: 0%
- pest or weed control at 250 g/ha [11, 30]: 0%
- pest or weed control at 250 g/ha (rice (Oryra sativa); [30]): 0%
- pest or weed control at 250 g/ha [12, 30]: 0%

SMILES: Cc1ccc([C@H]2CN(C)C(=O)[C@@H]2C(=O)Nc2cccc(F)c2F)cc1C [Compound 1039]
- pest or weed control at 125 g/ha [1, 16]: 20%
- pest or weed control at 500 g/ha [1, 17]: 40%
- pest or weed control at 125 g/ha [2, 18]: 40%
- pest or weed control at 500 g/ha [2, 19]: 60%
- pest or weed control at 125 g/ha (Kochia (Kochia scoparia); [20]): 40%
- pest or weed control at 500 g/ha (Kochia (Kochia scoparia); [21]): 60%
- pest or weed control at 125 g/ha [3, 13]: 90%
- pest or weed control at 500 g/ha [3, 22]: 90%
- pest or weed control at 125 g/ha [4, 14]: 30%
- pest or weed control at 500 g/ha [4, 23]: 40%
- Corn plant response rating (crop injury, 0 = no effect, 100 = complete kill) at 125 g/ha (corn (Zea mays); 125 g ai/ha): 70%
- Corn plant response rating (crop injury, 0 = no effect, 100 = complete kill) at 500 g/ha (corn (Zea mays); postemergence, approx. 10 d): 70%
- pest or weed control at 125 g/ha [5, 24]: 90%
- pest or weed control at 500 g/ha [5, 25]: 90%
- pest or weed control at 125 g/ha [6, 26]: 0%
- pest or weed control at 125 g/ha [7, 27]: 10%
- pest or weed control at 125 g/ha [8, 28]: 50%
- plant injury at 125 g/ha [9, 29]: 50%
- pest or weed control at 250 g/ha [10, 30]: 65%
- pest or weed control at 250 g/ha [11, 30]: 90%
- pest or weed control at 250 g/ha (rice (Oryra sativa); [30]): 0%
- pest or weed control at 250 g/ha [12, 30]: 0%
